In patent publication US20140274766A1, “METHODS OF USING F-SPONDIN AS A BIOMARKER FOR CARTILAGE DEGENERATIVE CONDITIONS AND BONE DISEASES” (priority 2009, published 2014):

What was measured:
OA cartilage = assay: IL-1 effect on gene expression in OA cartilage explant cultures (QPCR); format: cell-based, human; conditions: IL-1 1 ng/ml, 24-72 h, OA cartilage explants
Protocol: FIG. 7: IL-1 inhibited F-spondin and aggrecan expression in OA cartilage. OA cartilage was stimulated with IL-1 (1 ng/ml) for 24-72 h and total RNA was isolated and QPCR was performed.
Since IL-1 β appears to play a significant role in the pathogenesis of OA, its effects on F-spondin expression by QPCR in cartilage explants cultures was studied. Briefly, knee articular cartilage from patients undergoing knee replacement surgery was obtained and cut in 3-mm discs, and four to six discs (˜100 mg) were placed in organ culture in 2 ml of Ham's F-12 medium+0.1% human albumin (endo toxin fr) for 24-72 h, in the presence and absence of IL-1beta (1 ng/ml). At the end of the experiment the cartilage was frozen immediately in liquid nitrogen for RNA extraction.

chick chondrocytes = assay: Alkaline phosphatase (AP) activity in RA-stimulated chick chondrocyte cultures; format: cell-based; conditions: RA 3 days
Protocol: FIG. 16. Inhibition of F-spondin decreases AP activity in RA stimulated cultures. Chick chondrocytes were treated with RA at 100 nm for 5 days with and without F-spondin antibodies and AP activity assessed. Antibodies with specificities to the spondin domain (medium grey) and TSR domain (black) inhibited AP activity compared to ctrl (noAb) (light grey). Note the greater inhibitory effect of the TSR domain antibody. * p=<0.05 versus no ab ctrl.
FIG. 17. The pro-maturation effect of F-spondin is not inhibited following neutralization of TGF-β activity by coculture with Latency Associated Peptide (LAP). AP activity was determined in chick chondrocyte cultures by ELISA following RA stimulation for 3 days. Cultures were either ctrl (RA only) or RA with either F-Spondin (1 ug/ml) or LAP (10 or 100 ng/ml), or RA with F-Spondin (1 ug/ml) and LAP (10 or 100 ng/ml) in combination.
FIG. 18. Blocking αvβ3 integrin inhibits the promaturation effect of F-spondin. Chondocyte cultures were transfected as previously and stimulated with RA for 3 days in the presence of IgG control, or αvβ3 blocking antibodies prior to assay for AP activity. Inhibition of αvβ3 led to a ˜50% suppression of F-spondin-induced AP activity but had no effect on baseline AP activity (vector ctrl).
FIGS. 23A, 23B and 23C. F-spondin regulation of chondrocyte maturation requires the TSR domain. (A) Schematic representation of F-spondin protein domains and plasmid constructs encoding either full length (FS1) or TSR domain truncated (FS6) cDNAs. (B) Relative AP activity of FS or pcDNA3 control transfected cultures after 5 days treatment. (C) Relative AP activity following inhibition of F-spondin protein domains. Upper sternal chondrocytes were stimulated with 0, 10, 35 or 100 nM retinoic acid (RA) for 5 days in culture. […]
We next determined that the pro-maturation effect of F-spondin is not inhibited following neutralization of TGF-β activity by coculture with Latency Associated Peptide (LAP) (R&D Systems, Cat No 246-LP/CF). […] AP activity was determined in chick chondrocyte cultures by ELISA following RA stimulation for 3 days. […]

[1] = tested on: embryonic chick chondrocytes; assay: TGF-β treatment of embryonic chick chondrocytes, maturation marker expression (quantitative PCR); format: cell-based; conditions: TGF-β 5 days
Protocol: FIGS. 24A and 24B. TGF-β enhances chondrocyte maturation and is required for F-spondin mediated induction of AP. (A) Relative gene expression of chondrocyte maturation markers following TGF-β treatment. Upper sternal chondrocytes were treated with TGF-β at the indicated doses for 5 days and mRNA levels determined by quantitative PCR. Values are expressed relative to untreated controls. (B) Effect of TGF-β depletion on F-spondin-mediated induction of AP. The conditioned media of FS1 or pcDNA3 transfected chondrocytes was harvested and immunodepleted of TGF-β or left untreated, and added to separate cultures in the presence of RA. […] Values represent mean expression levels of triplicate samples relative to untreated supernatants from vector ctrl cultures (=1).
We have previously reported that F-spondin can regulate the synthetic activity of articular chondrocytes via activation of latent TGF-β (Attur, M et al (2009) Faseb J 23:79-89). Since the TSR domain harbors conserved TGF-β binding motifs, we proposed that F-spondin-mediated enhancement of chondrocyte maturation similarly occurs via TGF-β. […] To determine whether […] is required for F-spondin induction of AP, we transfected chick chondrocytes with FS1 or control vector cDNA and harvested conditioned media supernatants after 48 h. Supernatants were then depleted of TGF-β by coincubation with anti-TGF-b antibody and added to separate cultures of chick chondrocytes in the presence of retinoic acid for 24 h.

## IL-1: pro-inflammatory cytokine
OA cartilage
  expression of F-spondin: significantly inhibited
  expression of aggrecan: significantly inhibited

## LAP: Latency Associated Peptide (R&D Systems), neutralizes TGF-β activity
Chick chondrocytes; LAP 10-100 ng/ml with F-Spondin 1 ug/ml
  effect on AP activity increase seen with F-spondin alone: did not significantly alter
Chick chondrocytes; LAP 10-100 ng/ml
  chondrocyte maturation: accelerates maturation

## TGF-β
[1]
  expression of AP: dose dependent increases
  expression of F-spondin: dose dependent increases
  expression of MMP-13: dose dependent increases
